# Assay results reported in ChEMBL document CHEMBL5291721, “A preclinical secondary pharmacology resource illuminates target-adverse drug reaction associations of marketed drugs” (Nat Commun, 2023).
# Legend:
# [1] = biological target: T1, 5-hydroxytryptamine receptor 1A (Homo sapiens, UniProt P08908); format: functional, cell-based
# T1 sequence (P08908 whole entry): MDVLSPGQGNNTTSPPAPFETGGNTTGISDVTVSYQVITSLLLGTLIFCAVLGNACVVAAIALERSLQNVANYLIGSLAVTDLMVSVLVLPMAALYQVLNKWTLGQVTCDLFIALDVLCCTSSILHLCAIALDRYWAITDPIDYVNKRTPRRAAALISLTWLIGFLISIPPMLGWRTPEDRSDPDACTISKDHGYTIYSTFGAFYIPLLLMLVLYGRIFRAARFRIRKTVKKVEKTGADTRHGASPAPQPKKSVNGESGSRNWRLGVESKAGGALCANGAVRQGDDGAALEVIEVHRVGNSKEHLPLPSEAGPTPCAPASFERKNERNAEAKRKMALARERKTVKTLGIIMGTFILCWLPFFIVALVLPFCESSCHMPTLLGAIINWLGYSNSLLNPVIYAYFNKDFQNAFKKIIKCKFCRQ
# [2] = biological target: T2, Alpha-2A adrenergic receptor (Homo sapiens, UniProt P08913); format: functional, cell-based
# T2 sequence (P08913 whole entry): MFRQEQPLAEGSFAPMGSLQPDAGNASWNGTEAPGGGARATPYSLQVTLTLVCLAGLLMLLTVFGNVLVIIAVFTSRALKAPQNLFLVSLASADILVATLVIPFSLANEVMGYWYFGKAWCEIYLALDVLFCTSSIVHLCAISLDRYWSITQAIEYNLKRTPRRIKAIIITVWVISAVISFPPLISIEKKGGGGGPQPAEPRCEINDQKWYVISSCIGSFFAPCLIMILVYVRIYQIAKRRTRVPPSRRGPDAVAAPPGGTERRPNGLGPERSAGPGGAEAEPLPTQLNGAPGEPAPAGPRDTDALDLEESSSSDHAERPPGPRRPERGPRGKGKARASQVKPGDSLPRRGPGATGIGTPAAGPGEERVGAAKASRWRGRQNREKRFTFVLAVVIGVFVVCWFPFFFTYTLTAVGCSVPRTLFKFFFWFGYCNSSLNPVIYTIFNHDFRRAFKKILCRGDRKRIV
# [3] = biological target: D(1A) dopamine receptor (Homo sapiens, UniProt P21728); format: functional, cell-based
# D(1A) dopamine receptor, sequence (P21728 whole entry): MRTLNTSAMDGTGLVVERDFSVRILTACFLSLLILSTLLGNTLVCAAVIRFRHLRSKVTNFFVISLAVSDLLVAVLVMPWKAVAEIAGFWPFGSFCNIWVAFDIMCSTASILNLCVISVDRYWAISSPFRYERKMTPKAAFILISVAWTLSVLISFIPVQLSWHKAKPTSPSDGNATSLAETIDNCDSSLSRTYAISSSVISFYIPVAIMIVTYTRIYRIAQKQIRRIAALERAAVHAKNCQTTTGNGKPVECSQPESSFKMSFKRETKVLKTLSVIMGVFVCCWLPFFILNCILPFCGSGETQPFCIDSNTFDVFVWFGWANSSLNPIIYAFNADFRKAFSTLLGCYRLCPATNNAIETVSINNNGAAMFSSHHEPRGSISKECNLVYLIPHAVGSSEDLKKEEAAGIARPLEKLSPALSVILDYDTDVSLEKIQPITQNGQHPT
# [4] = biological target: Melanocortin receptor 3 (Homo sapiens, UniProt P41968)
# Melanocortin receptor 3, sequence (P41968 whole entry): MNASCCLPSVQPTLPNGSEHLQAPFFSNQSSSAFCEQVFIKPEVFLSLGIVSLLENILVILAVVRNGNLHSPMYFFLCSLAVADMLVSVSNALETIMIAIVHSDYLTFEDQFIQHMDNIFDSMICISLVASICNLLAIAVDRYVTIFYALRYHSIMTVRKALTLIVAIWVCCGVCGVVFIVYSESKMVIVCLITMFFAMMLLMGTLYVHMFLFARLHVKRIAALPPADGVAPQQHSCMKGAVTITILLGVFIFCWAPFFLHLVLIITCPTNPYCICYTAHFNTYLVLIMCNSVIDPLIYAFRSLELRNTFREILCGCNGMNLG
# [5] = biological target: T3, Adenosine receptor A1 (Homo sapiens, UniProt P30542)
# T3 sequence (P30542 whole entry): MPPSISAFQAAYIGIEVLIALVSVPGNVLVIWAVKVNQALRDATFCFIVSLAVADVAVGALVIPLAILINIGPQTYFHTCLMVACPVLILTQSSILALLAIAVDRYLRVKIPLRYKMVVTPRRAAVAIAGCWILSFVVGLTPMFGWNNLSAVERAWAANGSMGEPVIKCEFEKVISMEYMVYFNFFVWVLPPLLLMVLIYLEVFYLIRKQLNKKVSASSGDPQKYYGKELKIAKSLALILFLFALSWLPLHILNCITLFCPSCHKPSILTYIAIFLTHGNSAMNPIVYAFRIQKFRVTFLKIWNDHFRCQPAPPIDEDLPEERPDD
# [6] = biological target: T4, Adenosine receptor A3 (Homo sapiens, UniProt P0DMS8)
# T4 sequence (P0DMS8 whole entry): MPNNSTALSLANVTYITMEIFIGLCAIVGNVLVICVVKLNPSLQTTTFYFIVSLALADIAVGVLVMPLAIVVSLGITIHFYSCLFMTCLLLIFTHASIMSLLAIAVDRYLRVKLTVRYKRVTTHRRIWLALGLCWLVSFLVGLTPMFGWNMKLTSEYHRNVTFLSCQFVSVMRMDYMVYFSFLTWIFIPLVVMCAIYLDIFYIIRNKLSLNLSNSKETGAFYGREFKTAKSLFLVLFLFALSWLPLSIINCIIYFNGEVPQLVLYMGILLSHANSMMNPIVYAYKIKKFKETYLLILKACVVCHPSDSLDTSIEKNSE
# [7] = biological target: cGMP-inhibited 3',5'-cyclic phosphodiesterase 3A (Homo sapiens, UniProt Q14432); format: functional
# cGMP-inhibited 3',5'-cyclic phosphodiesterase 3A, sequence (Q14432 whole entry): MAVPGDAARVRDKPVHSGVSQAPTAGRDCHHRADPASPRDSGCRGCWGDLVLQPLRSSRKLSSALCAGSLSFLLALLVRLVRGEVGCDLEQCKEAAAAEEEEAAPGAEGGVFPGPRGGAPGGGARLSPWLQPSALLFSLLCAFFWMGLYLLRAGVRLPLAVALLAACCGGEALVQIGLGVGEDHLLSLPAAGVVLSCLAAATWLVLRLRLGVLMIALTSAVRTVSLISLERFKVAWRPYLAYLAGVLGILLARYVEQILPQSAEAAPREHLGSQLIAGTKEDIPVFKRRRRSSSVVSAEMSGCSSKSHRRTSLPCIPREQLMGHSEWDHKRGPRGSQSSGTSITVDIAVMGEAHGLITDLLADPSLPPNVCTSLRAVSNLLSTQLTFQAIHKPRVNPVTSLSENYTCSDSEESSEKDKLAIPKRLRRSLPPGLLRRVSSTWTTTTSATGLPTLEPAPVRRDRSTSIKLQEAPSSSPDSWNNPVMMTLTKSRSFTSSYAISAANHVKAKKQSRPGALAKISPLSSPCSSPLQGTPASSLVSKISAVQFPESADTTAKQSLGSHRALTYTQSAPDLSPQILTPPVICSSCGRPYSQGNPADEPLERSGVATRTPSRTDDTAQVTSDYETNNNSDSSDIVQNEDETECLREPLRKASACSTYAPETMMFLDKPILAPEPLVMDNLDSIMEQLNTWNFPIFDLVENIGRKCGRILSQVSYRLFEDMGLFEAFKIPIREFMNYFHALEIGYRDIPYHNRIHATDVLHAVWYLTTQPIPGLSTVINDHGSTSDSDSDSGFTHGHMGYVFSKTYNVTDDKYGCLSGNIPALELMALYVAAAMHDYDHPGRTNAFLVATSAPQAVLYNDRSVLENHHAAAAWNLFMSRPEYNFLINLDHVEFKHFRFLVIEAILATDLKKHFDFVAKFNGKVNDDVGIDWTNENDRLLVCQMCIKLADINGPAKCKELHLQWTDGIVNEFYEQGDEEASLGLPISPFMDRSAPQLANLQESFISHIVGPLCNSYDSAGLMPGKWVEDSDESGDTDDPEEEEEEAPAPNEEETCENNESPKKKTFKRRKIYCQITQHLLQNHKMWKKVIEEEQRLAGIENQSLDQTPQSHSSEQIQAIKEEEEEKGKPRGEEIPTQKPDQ
# Note: assay procedure not described here.
smiles,measurement,setting,value
CC(C)(C)NC[C@H](O)COc1nsnc1N1CCOCC1 [TIMOLOL],AC50,[1],> 30 µM
same,AC50,[2],> 30 µM
same,AC50,[3],> 30 µM
same,AC50,[4],> 30 µM
same,AC50,[5],> 30 µM
same,AC50,[6],> 30 µM
same,AC50,[7],> 30 µM
[H]/N=C(/N)N[C@H]1[C@H](O)[C@@H](O)[C@H](O[C@@H]2O[C@@H](C)[C@](O)(C=O)[C@H]2O[C@@H]2O[C@@H](CO)[C@H](O)[C@@H](O)[C@@H]2NC)[C@@H](N/C(N)=N\[H])[C@@H]1O [STREPTOMYCIN],AC50,[1],> 30 µM
same,AC50,[2],> 30 µM
same,AC50,[3],> 30 µM
same,AC50,[4],> 30 µM
same,AC50,[5],> 30 µM
same,AC50,[6],> 30 µM
same,AC50,[7],> 30 µM
COc1ccc(/C=C/C(=O)Nc2ccccc2C(=O)O)cc1OC,AC50,[1],> 30 µM
same,AC50,[2],> 30 µM
same,AC50,[3],> 30 µM
same,AC50,[4],> 30 µM
same,AC50,[5],> 30 µM
same,AC50,[6],> 30 µM
same,AC50,[7],24 µM
Nc1nc2c(c(=O)[nH]1)N(C=O)C(CNc1ccc(C(=O)N[C@@H](CCC(=O)O)C(=O)O)cc1)CN2 (stereo not given in full) [LEUCOVORIN],AC50,[1],> 30 µM
same,AC50,[2],> 30 µM
same,AC50,[3],> 30 µM
same,AC50,[4],> 30 µM
same,AC50,[5],> 30 µM
same,AC50,[6],> 30 µM
same,AC50,[7],> 30 µM
CS(=O)(=O)OCCCCOS(C)(=O)=O [BUSULFAN],AC50,[1],> 30 µM
same,AC50,[2],> 30 µM
same,AC50,[3],> 30 µM
same,AC50,[4],> 30 µM
same,AC50,[5],> 30 µM
same,AC50,[6],> 30 µM
same,AC50,[7],> 30 µM
COc1ccc(C(CN(C)C)C2(O)CCCCC2)cc1 (stereo not given) [VENLAFAXINE],AC50,[1],> 30 µM
same,AC50,[2],> 10 µM
same,AC50,[3],> 30 µM
same,AC50,[4],> 30 µM
same,AC50,[5],> 30 µM
same,AC50,[6],> 30 µM
same,AC50,[7],> 10 µM
CC(C)(C)NCC(O)c1cc(Cl)c(N)c(Cl)c1 (stereo not given) [CLENBUTEROL],AC50,[1],3.02 µM
same,AC50,[2],> 30 µM
same,AC50,[3],> 30 µM
same,AC50,[4],> 30 µM
same,AC50,[5],> 30 µM
same,AC50,[6],> 30 µM
same,AC50,[7],> 30 µM
NCCCC(O)(P(=O)(O)O)P(=O)(O)O [ALENDRONIC ACID],AC50,[1],> 10 µM
same,AC50,[2],> 10 µM
same,AC50,[4],> 30 µM
same,AC50,[5],> 30 µM
same,AC50,[6],> 30 µM
same,AC50,[7],1.09 µM
CC(C)CC(N(C)C)C1(c2ccc(Cl)cc2)CCC1 (stereo not given) [SIBUTRAMINE],AC50,[1],> 30 µM
same,AC50,[2],30 µM
same,AC50,[3],> 10 µM
same,AC50,[4],> 30 µM
same,AC50,[5],> 30 µM
same,AC50,[6],> 30 µM
same,AC50,[7],> 30 µM
Nc1ccn([C@@H]2O[C@H](CO)[C@@H](O)C2(F)F)c(=O)n1 [GEMCITABINE],AC50,[1],> 10 µM
same,AC50,[2],> 10 µM
same,AC50,[3],> 10 µM
same,AC50,[4],> 30 µM
same,AC50,[5],> 30 µM
same,AC50,[6],> 30 µM
same,AC50,[7],11 µM
Cc1cccc(N(C)C(=S)Oc2ccc3ccccc3c2)c1 [TOLNAFTATE],AC50,[1],> 10 µM
same,AC50,[2],> 10 µM
same,AC50,[3],> 30 µM
same,AC50,[4],> 10 µM
same,AC50,[5],> 10 µM
same,AC50,[6],> 10 µM
same,AC50,[7],> 30 µM
CCCNC(C)C(=O)Nc1ccccc1C (stereo not given) [PRILOCAINE],AC50,[1],> 30 µM
same,AC50,[2],> 30 µM
same,AC50,[3],> 30 µM
same,AC50,[4],> 30 µM
same,AC50,[5],> 30 µM
same,AC50,[6],> 30 µM
same,AC50,[7],> 30 µM
Nc1ccc(C(=O)O)c(O)c1 [AMINOSALICYLIC ACID],AC50,[1],> 30 µM
same,AC50,[2],> 30 µM
same,AC50,[3],> 30 µM
same,AC50,[4],> 30 µM
same,AC50,[5],> 30 µM
same,AC50,[6],> 30 µM
same,AC50,[7],> 30 µM
COc1cccc2c1C(=O)c1c(O)c3c(c(O)c1C2=O)C[C@@](O)(C(C)=O)C[C@@H]3O[C@H]1C[C@H](N)[C@H](O)[C@H](C)O1 [DAUNORUBICIN],AC50,[3],> 30 µM
same,AC50,[4],29 µM
same,AC50,[5],> 30 µM
same,AC50,[6],26.5 µM
same,AC50,[7],> 30 µM
CCn1cc(C(=O)O)c(=O)c2cc(F)c(N3CCN(C)CC3)cc21 [PEFLOXACIN],AC50,[1],> 30 µM
same,AC50,[2],> 30 µM
same,AC50,[3],> 30 µM
same,AC50,[4],> 30 µM
same,AC50,[5],> 30 µM
same,AC50,[6],> 30 µM
same,AC50,[7],> 30 µM
C[n+]1ccccc1/C=N/O [PRALIDOXIME],AC50,[2],> 30 µM
same,AC50,[3],> 30 µM
same,AC50,[7],> 30 µM
